Source: paper doi:10.1101/2021.04.08.439011v1 (biorxiv, 2021)

Legend:
Conditions in all cases: 0.1 µM; binder
KIT(D816H) = KIT(D816H) (Homo sapiens, UniProt P10721, D816H)
PIK3CB = PIK3CB (Homo sapiens, UniProt P42338)
SGK = SGK (Homo sapiens, UniProt O00141)
NEK5 = NEK5 (Homo sapiens, UniProt Q6P3R8)
VPS34 = VPS34 (Homo sapiens, UniProt Q8NEB9)
INSR = INSR (Homo sapiens, UniProt P06213)
SBK1 = SBK1 (Homo sapiens, UniProt Q52WX2)
ABL2 = ABL2 (Homo sapiens, UniProt P42684)
NEK7 = NEK7 (Homo sapiens, UniProt Q8TDX7)
TTK = TTK (Homo sapiens, UniProt P33981)
CDK5 = CDK5 (Homo sapiens, UniProt Q00535)
PIP4K2C = PIP4K2C (Homo sapiens, UniProt Q8TBX8)
ARK5 = ARK5 (Homo sapiens, UniProt O60285)
MAP3K1 = MAP3K1 (Homo sapiens, UniProt Q13233)
SIK1 = SIK1 (Homo sapiens, UniProt P57059)
ERBB3 = ERBB3 (Homo sapiens, UniProt P21860)
ALK(L1196M) = ALK(L1196M) (Homo sapiens, UniProt Q9UM73, L1196M)
Sequence of ALK(L1196M) (Q9UM73 whole entry L1196M): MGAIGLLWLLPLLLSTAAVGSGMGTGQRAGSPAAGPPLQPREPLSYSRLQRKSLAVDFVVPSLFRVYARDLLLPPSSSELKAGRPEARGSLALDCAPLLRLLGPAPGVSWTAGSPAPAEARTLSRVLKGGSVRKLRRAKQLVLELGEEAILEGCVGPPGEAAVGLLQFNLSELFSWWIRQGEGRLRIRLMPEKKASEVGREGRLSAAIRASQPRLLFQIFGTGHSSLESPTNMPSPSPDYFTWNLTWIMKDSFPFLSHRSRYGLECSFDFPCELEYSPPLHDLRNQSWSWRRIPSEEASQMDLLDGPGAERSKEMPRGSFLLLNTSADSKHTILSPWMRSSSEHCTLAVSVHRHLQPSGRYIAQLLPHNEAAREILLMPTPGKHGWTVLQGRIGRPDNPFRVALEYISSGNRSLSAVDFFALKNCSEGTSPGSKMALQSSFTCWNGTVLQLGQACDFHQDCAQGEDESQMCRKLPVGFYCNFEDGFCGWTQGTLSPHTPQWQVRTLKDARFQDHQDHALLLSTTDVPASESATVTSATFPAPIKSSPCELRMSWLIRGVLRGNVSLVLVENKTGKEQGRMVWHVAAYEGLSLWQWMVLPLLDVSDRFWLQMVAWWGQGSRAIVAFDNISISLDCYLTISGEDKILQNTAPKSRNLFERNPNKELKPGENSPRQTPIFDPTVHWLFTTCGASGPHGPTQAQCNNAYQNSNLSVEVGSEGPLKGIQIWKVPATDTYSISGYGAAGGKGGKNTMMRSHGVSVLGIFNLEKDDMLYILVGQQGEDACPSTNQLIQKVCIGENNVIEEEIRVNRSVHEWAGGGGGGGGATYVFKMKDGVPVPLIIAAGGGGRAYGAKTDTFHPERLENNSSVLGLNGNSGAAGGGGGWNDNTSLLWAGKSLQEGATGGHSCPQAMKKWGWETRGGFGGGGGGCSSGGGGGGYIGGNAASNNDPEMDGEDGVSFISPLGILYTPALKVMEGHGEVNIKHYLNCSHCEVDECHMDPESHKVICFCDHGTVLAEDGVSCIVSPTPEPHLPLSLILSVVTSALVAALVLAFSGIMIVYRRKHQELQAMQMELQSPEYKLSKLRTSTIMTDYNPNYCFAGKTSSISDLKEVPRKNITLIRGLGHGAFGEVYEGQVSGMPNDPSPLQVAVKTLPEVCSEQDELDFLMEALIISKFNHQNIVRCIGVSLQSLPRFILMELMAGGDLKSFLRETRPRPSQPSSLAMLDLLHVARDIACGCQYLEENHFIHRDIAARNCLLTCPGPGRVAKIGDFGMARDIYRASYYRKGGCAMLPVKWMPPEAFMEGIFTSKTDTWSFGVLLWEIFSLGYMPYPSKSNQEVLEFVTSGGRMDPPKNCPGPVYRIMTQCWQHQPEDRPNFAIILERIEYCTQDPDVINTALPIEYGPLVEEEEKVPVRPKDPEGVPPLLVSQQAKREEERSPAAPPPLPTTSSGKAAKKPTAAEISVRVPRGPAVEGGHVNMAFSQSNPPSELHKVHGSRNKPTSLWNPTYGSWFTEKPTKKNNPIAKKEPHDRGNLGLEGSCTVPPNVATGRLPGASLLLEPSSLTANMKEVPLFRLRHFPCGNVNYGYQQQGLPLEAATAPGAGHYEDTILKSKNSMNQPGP

PRKD1 = PRKD1 (Homo sapiens, UniProt Q15139)
Sequence of PRKD1 (Q15139 whole entry): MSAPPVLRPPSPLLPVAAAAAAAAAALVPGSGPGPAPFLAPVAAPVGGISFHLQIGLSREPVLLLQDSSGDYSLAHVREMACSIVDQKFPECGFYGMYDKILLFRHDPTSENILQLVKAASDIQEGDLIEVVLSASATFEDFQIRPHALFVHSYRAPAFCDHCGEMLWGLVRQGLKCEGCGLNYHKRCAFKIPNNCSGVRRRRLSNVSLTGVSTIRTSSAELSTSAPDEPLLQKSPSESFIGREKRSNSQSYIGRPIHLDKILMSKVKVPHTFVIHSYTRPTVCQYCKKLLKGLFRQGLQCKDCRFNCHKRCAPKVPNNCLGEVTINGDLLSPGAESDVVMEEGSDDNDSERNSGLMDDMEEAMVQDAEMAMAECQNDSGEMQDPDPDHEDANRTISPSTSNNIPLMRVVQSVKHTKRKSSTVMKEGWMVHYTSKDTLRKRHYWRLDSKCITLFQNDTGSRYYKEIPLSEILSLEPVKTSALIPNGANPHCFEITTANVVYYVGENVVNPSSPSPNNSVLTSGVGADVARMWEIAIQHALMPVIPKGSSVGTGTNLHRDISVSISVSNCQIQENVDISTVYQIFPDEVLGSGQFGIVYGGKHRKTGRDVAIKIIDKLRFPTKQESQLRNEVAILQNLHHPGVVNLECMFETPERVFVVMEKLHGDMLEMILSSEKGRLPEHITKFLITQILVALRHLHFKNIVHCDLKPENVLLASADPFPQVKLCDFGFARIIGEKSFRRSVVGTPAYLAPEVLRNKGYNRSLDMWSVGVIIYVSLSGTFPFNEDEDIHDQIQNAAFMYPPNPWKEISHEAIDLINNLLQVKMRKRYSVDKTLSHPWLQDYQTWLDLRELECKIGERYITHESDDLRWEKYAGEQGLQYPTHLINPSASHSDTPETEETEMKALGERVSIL

PIP4K2B = PIP4K2B (Homo sapiens, UniProt P78356)
Sequence of PIP4K2B (P78356 whole entry): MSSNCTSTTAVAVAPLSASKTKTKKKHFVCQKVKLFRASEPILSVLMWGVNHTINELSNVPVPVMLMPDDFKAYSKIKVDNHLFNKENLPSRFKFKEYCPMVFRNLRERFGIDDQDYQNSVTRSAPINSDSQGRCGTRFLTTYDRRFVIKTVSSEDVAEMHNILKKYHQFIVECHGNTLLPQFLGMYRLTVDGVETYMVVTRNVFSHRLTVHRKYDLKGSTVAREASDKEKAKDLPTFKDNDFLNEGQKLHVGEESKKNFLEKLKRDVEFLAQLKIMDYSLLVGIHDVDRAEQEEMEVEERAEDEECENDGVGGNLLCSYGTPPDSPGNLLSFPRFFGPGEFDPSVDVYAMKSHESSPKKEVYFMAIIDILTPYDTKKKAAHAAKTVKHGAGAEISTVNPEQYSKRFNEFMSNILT

BIKE = BIKE (Homo sapiens, UniProt Q9NSY1)
CDKL1 = CDKL1 (Homo sapiens, UniProt Q00532)
CAMK1G = CAMK1G (Homo sapiens, UniProt Q96NX5)
RET(V804L) = RET(V804L) (Homo sapiens, UniProt P07949, V804L)
Sequence of RET(V804L) (P07949 whole entry V804L): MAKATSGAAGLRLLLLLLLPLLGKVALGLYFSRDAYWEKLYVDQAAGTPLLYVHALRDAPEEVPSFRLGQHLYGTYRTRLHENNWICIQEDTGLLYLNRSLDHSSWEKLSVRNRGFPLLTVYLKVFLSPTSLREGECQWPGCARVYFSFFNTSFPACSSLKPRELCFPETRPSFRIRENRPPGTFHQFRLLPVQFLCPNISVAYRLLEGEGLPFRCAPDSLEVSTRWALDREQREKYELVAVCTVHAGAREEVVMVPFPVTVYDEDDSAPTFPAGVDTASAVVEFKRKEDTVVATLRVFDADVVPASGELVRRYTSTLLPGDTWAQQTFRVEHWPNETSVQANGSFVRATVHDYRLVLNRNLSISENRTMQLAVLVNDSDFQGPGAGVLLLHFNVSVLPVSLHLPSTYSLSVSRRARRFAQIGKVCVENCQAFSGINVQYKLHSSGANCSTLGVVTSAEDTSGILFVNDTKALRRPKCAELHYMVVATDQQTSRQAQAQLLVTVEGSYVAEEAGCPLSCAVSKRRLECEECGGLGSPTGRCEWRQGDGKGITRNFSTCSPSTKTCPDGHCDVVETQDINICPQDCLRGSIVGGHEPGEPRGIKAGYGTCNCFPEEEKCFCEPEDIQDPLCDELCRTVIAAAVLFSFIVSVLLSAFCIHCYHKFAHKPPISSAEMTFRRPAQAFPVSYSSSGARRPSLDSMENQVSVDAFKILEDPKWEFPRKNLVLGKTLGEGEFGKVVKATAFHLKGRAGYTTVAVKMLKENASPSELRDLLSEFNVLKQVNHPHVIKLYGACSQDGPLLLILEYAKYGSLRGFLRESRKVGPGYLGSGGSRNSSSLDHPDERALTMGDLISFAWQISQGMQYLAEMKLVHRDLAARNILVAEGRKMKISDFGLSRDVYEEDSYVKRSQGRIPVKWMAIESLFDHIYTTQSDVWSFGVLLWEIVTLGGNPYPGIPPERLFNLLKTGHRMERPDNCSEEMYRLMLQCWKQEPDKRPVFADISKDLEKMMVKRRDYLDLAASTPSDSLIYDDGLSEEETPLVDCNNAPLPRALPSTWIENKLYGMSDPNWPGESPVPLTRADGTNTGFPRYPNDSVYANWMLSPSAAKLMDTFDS

TNK2 = TNK2 (Homo sapiens, UniProt Q07912)
CSNK1E = CSNK1E (Homo sapiens, UniProt P49674)
EPHB1 = EPHB1 (Homo sapiens, UniProt P54762)
Sequence of EPHB1 (P54762 whole entry): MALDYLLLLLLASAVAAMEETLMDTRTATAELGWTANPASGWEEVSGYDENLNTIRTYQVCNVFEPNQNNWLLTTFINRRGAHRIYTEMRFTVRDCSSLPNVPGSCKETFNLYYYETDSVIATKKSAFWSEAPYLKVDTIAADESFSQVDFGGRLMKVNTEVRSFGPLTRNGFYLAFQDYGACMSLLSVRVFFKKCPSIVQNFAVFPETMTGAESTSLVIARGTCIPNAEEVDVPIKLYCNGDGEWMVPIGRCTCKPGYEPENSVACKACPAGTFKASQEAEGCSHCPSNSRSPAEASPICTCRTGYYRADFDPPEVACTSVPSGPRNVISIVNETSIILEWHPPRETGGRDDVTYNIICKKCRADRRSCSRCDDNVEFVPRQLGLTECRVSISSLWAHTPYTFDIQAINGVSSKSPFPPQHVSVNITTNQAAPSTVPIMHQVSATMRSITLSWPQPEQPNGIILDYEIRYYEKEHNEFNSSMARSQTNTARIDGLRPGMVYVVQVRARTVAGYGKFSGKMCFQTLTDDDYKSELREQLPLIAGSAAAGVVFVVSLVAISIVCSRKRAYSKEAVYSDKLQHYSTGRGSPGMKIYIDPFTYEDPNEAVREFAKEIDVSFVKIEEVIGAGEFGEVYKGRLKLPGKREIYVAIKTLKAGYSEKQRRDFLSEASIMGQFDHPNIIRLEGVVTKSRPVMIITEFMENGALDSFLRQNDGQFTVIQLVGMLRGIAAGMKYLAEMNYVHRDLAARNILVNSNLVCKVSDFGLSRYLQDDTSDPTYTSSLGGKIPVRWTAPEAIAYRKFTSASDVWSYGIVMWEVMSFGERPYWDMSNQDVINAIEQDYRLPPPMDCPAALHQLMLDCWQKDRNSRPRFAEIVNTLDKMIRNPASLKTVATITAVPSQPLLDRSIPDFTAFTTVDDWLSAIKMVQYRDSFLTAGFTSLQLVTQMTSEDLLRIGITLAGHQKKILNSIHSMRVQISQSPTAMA

TIE1 = TIE1 (Homo sapiens, UniProt P35590)
NEK2 = NEK2 (Homo sapiens, UniProt P51955)
FER = FER (Homo sapiens, UniProt P16591)
STK39 = STK39 (Homo sapiens, UniProt Q9UEW8)
AURKB = AURKB (Homo sapiens, UniProt Q96GD4)

Compound: CNc1ncc2cc(-c3ccc(-c4cccc(C)n4)cc3Cl)c(=O)n(C[C@H]3OC[C@H](N)CO3)c2n1 [compound 6, G-5555]
- Percent Control (KIT(D816H)): 100%
- Percent Control (PIK3CB): 100%
- Percent Control (SGK): 99%
- Percent Control (NEK5): 100%
- Percent Control (VPS34): 86%
- Percent Control (INSR): 95%
- Percent Control (SBK1): 98%
- Percent Control (ABL2): 100%
- Percent Control (NEK7): 100%
- Percent Control (TTK): 100%
- Percent Control (CDK5): 100%
- Percent Control (PIP4K2C): 79%
- Percent Control (ARK5): 87%
- Percent Control (MAP3K1): 81%
- Percent Control (SIK1): 1.4%
- Percent Control (ERBB3): 77%
- Percent Control (ALK(L1196M)): 100%
- Percent Control (PRKD1): 68%
- Percent Control (PIP4K2B): 68%
- Percent Control (BIKE): 100%
- Percent Control (CDKL1): 100%
- Percent Control (CAMK1G): 100%
- Percent Control (RET(V804L)): 94%
- Percent Control (TNK2): 92%
- Percent Control (CSNK1E): 100%
- Percent Control (EPHB1): 100%
- Percent Control (TIE1): 100%
- Percent Control (NEK2): 100%
- Percent Control (FER): 100%
- Percent Control (STK39): 100%
- Percent Control (AURKB): 72%
